Experimental data as given in ChEMBL document CHEMBL1201862, “PubChem BioAssay data set” (2004).
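Cultured in 96-well plates, cells were exposed to test compound for 48 hours across five concentrations. Abbreviation: GI50, concentration required for 50% inhibition of growth.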 Activity calls are given as the source filed them. Cut-off read from the data, not from the text of the source: active = GI50 up to about 1.1 µM and inactive = higher.

Experiments:
Test in all cases: DTP human tumour cell line panel, 48 h
[1] = system: SF-268
[2] = system: A549
[3] = system: SK-MEL-5
[4] = system: MDA-N
[5] = system: HCT-15
[6] = system: A498
[7] = system: K562
[8] = system: EKVX
[9] = system: Hs-578T
[10] = system: HT-29
[11] = system: LOX IMVI
[12] = system: BT-549
[13] = system: HCC 2998
[14] = system: OVCAR-3
[15] = system: SW-620
[16] = system: MDA-MB-231
[17] = system: NCI-H226
[18] = system: MOLT-4
[19] = system: PC-3
[20] = system: OVCAR-5
[21] = system: SK-MEL-2
[22] = system: UO-31
[23] = system: SF-539
[24] = system: SF-295
[25] = system: OVCAR-4
[26] = system: CCRF-CEM
[27] = system: HOP-62
[28] = system: NCI/ADR-RES
[29] = system: NCI-H23
[30] = system: COLO 205
[31] = system: HOP-92
[32] = system: HCT-116
[33] = system: U-251
[34] = system: CAKI-1
[35] = system: SK-MEL-28
[36] = system: UACC-62
[37] = system: SN12C
[38] = system: UACC-257
[39] = system: SK-OV-3
[40] = system: NCI-H522
[41] = system: RXF 393
[42] = system: SNB-75
[43] = system: HL-60
[44] = system: MDA-MB-435
[45] = system: ACHN
[46] = system: OVCAR-8
[47] = system: 786-0
[48] = system: TK-10
[49] = system: M14
[50] = system: T47D
[51] = system: SNB-19
[52] = system: KM12
[53] = system: RPMI-8226
[54] = system: MCF7
[55] = system: NCI-H460
[56] = system: IGROV-1
[57] = system: Malme-3M
[58] = system: DU-145
[59] = system: SR

O=C1c2ccccc2C(=O)c2c(NCC3CO3)cccc21 (stereo not drawn)
GI50 [1]: 7.5 µM (inactive)
GI50 [2]: 57 µM (inactive)
GI50 [3]: 22.6 µM (inactive)
GI50 [4]: 8.99 µM (inactive)
GI50 [5]: 7.23 µM
GI50 [6]: 34.4 µM (inactive)
GI50 [7]: 6.62 µM (inactive)
GI50 [8]: 17.5 µM (inactive)
GI50 [9]: 38.4 µM (inactive)
GI50 [10]: 18.2 µM (inactive)
GI50 [11]: 1.38 µM (inactive)
GI50 [12]: 19 µM (inactive)
GI50 [13]: > 100 µM (inactive)
GI50 [14]: 15.4 µM (inactive)
GI50 [15]: 5.57 µM (inactive)
GI50 [16]: 15.2 µM (inactive)
GI50 [17]: > 100 µM (inactive)
GI50 [18]: 3.77 µM (inactive)
GI50 [19]: 16.9 µM (inactive)
GI50 [20]: > 71.3 µM (inactive)
GI50 [21]: 17.2 µM (inactive)
GI50 [22]: 8.05 µM (inactive)
GI50 [23]: > 45.3 µM (inactive)
GI50 [24]: 26.5 µM (inactive)
GI50 [25]: > 86.1 µM (inactive)
GI50 [26]: 1.43 µM (inactive)
GI50 [27]: > 46.1 µM (inactive)
GI50 [28]: 9.91 µM (inactive)
GI50 [29]: 9.44 µM (inactive)
GI50 [30]: > 53.1 µM (inactive)
GI50 [31]: 94.4 µM (inactive)
GI50 [32]: 7.01 µM (inactive)
GI50 [33]: 14 µM (inactive)
GI50 [34]: 4.75 µM (inactive)
GI50 [35]: > 41.7 µM (inactive)
GI50 [36]: 16 µM (inactive)
GI50 [37]: 7.66 µM (inactive)
GI50 [38]: > 56.2 µM (inactive)
GI50 [39]: > 95.7 µM (inactive)
GI50 [40]: 23.2 µM (inactive)
GI50 [41]: 7.66 µM (inactive)
GI50 [42]: > 100 µM (inactive)
GI50 [43]: 5.27 µM (inactive)
GI50 [44]: 7.59 µM (inactive)
GI50 [45]: 8.67 µM (inactive)
GI50 [46]: 7.19 µM (inactive)
GI50 [47]: 12.2 µM (inactive)
GI50 [48]: 40.9 µM (inactive)
GI50 [49]: 11.3 µM (inactive)
GI50 [50]: > 100 µM (inactive)
GI50 [51]: > 57.3 µM (inactive)
GI50 [52]: 18.6 µM (inactive)
GI50 [53]: 33.2 µM (inactive)
GI50 [54]: 1.31 µM (inactive)
GI50 [55]: > 64.7 µM (inactive)
GI50 [56]: 17.4 µM (inactive)
GI50 [57]: > 80.5 µM (inactive)

CC1C2CC(C(S(=O)(=O)O)C2=O)C1(C)C (stereo not drawn)
GI50 [1]: > 100 µM (inactive)
GI50 [4]: > 100 µM (inactive)
GI50 [58]: > 100 µM (inactive)
GI50 [6]: > 100 µM (inactive)
GI50 [7]: > 100 µM (inactive)
GI50 [8]: > 100 µM (inactive)
GI50 [9]: > 100 µM (inactive)
GI50 [10]: > 100 µM (inactive)
GI50 [12]: > 100 µM (inactive)
GI50 [13]: > 100 µM (inactive)
GI50 [14]: > 100 µM (inactive)
GI50 [15]: > 100 µM (inactive)
GI50 [16]: > 100 µM (inactive)
GI50 [17]: > 100 µM (inactive)
GI50 [18]: > 100 µM (inactive)
GI50 [19]: > 100 µM (inactive)
GI50 [20]: > 100 µM (inactive)
GI50 [22]: > 100 µM (inactive)
GI50 [23]: > 100 µM (inactive)
GI50 [24]: > 100 µM (inactive)
GI50 [25]: > 100 µM (inactive)
GI50 [26]: > 100 µM (inactive)
GI50 [27]: > 100 µM (inactive)
GI50 [29]: > 100 µM (inactive)
GI50 [59]: > 100 µM (inactive)
GI50 [30]: > 100 µM (inactive)
GI50 [31]: > 100 µM (inactive)
GI50 [32]: > 100 µM (inactive)
GI50 [33]: > 100 µM (inactive)
GI50 [35]: > 100 µM (inactive)
GI50 [36]: > 100 µM (inactive)
GI50 [37]: > 100 µM (inactive)
GI50 [38]: > 100 µM (inactive)
GI50 [39]: > 100 µM (inactive)
GI50 [40]: > 100 µM (inactive)
GI50 [41]: > 100 µM (inactive)
GI50 [42]: > 100 µM (inactive)
GI50 [43]: > 100 µM (inactive)
GI50 [44]: > 100 µM (inactive)
GI50 [45]: > 100 µM (inactive)
GI50 [46]: > 100 µM (inactive)
GI50 [47]: > 100 µM (inactive)
GI50 [48]: > 100 µM (inactive)
GI50 [49]: > 100 µM (inactive)
GI50 [50]: > 100 µM (inactive)
GI50 [51]: > 100 µM (inactive)
GI50 [52]: > 100 µM (inactive)
GI50 [54]: > 100 µM (inactive)
GI50 [55]: > 100 µM (inactive)
GI50 [56]: > 100 µM (inactive)
GI50 [57]: > 100 µM (inactive)
